Where a SMILES comes first, the peptide text is derived from it. Bridges are numbered along the chain shown (N, C = ends).
Tests used:
[1] = test system: E. coli ATCC 25922; details: BALB/c mice, n = 5, i.p. infection 10^6 CFU with 2.5% mucin; 10 mg/kg i.p. at 1 h and 4 h after infection; 7 days
[2] = test system: E. coli MDR CI 1057; details: 37 °C
Procedure: Resistance induction experiments were performed using the previously described method. Briefly, on day one, the overnight culture of wild-type bacteria was diluted with the 2× MH broth supplemented with 1.8% NaCl to reach a final cell concentration of 10^6 CFU/mL.

[3] = test system: Escherichia coli ML-35p; details: salt-containing MHB, FBS at different concentrations up to 15%
Source text: The results were expressed as the median values determined on the basis of at least three independent experiments performed in triplicate.

[4] = RP-HPLC retention time; format: physicochemical; details: semi-preparative RP-HPLC, C18 column, linear gradient 5 to 80% (v/v) acetonitrile in water with 0.1% TFA within 50 min
Procedure: Figure 2 Structure analysis of the novel BRICHOS-related peptides HfBRI-25 and HfBRI-28. (A) Characteristics of the obtained peptides. ^1 Mean Kyte–Doolittle hydrophobicity index (GRAVY) was calculated using the Expasy ProtParam tool. The maximum and minimum values of this index are +4.5 and −4.5 for poly-Ile and poly-Arg sequences, respectively. ^2 Percentage of hydrophobic amino acids was calculated using the APD3 database. ^3 Retention times were measured using semi-preparative reversed-phase high-performance liquid chromatography (RP-HPLC) on a C18 column with a linear gradient from 5 to 80% (v/v) acetonitrile in water containing 0.1% trifluoroacetic acid (TFA) within 50 min. ^4 Molecular masses were calculated by considering the presence of four Cys residues forming two disulfide bonds in the case of HfBRI-25. ^5 Molecular masses were determined experimentally using MALDI-TOF mass spectrometry. (B) Spatial structures of HfBRI-25 and HfBRI-28 were modeled using the AlphaFold algorithm (ColabFold server). The top-rated models, according to predicted local distance difference test (pLDDT) scores, were visualized by the PyMOL software. (C) The CD-spectra of the peptides in water or in the presence of 30 mM DPC micelles. (D) The CONTINLL program was used for CD data analysis. […]

[5] = test system: E. coli; format: cell-based, Escherichia coli; details: panel incl. clinically isolated UPEC, MDR and XDR strains; regardless of resistance profile, biofilm production, presence of serum
Procedure: The clinical isolates were collected and provided by Sechenov First Moscow State Medical University hospital and the State Collection of Pathogenic Microorganisms “Obolensk” (SRCAMB collection). The resistant to conventional antibiotics strains were defined as extensively drug resistant (XDR), according to [47]. Bacterial test cultures were grown in a Mueller–Hinton broth (MHB, Sigma) at 37 °C to mid-log phase and then diluted with the 2× MH medium supplemented with 1.8% NaCl (and, optionally, with fetal bovine serum (FBS, Gibco) at different concentrations) or without salt so that to reach a final cell concentration of 10^6 CFU/mL. Moreover, 50 μL of the obtained bacterial suspension were added to aliquots of 50 μL of the peptide solutions serially diluted with sterilized 0.1% bovine serum albumin (BSA) in 96-well flat-bottom polystyrene microplates (Eppendorf #0030730011). After incubation for 24 h at 37 °C and 950 rpm on the plate thermoshaker (Biosan), minimum inhibitory concentrations (MIC) were determined as the lowest peptide concentrations that prevented growth of a test microorganism observed as visible turbidity. […] In the case of Mycobacterium smegmatis, MICs were determined in the Middlebrook 7H9 medium (HiMedia). The results were expressed as the median values determined on the basis of at least three independent experiments performed in triplicate.

## CC[C@H](C)[C@@H]1NC(=O)[C@H](Cc2c[nH]c3ccccc23)NC(=O)[C@H](C(C)C)NC(=O)[C@@H]2CSSC[C@H](NC(=O)[C@H](CCCNC(=N)N)NC(=O)[C@H](CCCNC(=N)N)NC(=O)[C@H](C(C)C)NC(=O)[C@H](CCCNC(=N)N)NC(=O)[C@H](CCCNC(=N)N)NC(=O)CNC(=O)[C@H](CC(N)=O)NC(=O)[C@H](C(C)C)NC(=O)[C@H](CO)NC1=O)C(=O)N[C@@H](Cc1c[nH]c3ccccc13)C(=O)NCC(=O)N[C@@H](CO)C(=O)NCC(=O)N[C@H](C(=O)O)CSSC[C@H](NC(=O)CNC(=O)[C@H](CCCNC(=N)N)NC(=O)[C@@H]1CCCN1C(=O)[C@@H](N)CO)C(=O)N[C@@H](Cc1ccccc1)C(=O)N2 [HfBRI-25] (H-SPRGCFCVWISVNGRRVRRCWGSGC-OH; disulfide 5-25, 7-20; N-terminus and C-terminus assumed)
[1]
  Survival / therapeutic efficacy: 100%
[2]; 21 passages (days) in the presence of the agent, MHB + 0.9% NaCl
  Change of MIC value after resistance selection: two-fold
[2]; Mueller–Hinton broth supplemented with 0.9% NaCl
  Initial MIC value before resistance selection: 1 µM
[3]
  MIC in the presence of FBS at different concentrations: 1 µM
[4]
  RP-HPLC Retention Time: 27.5 min
[5]
  MIC value against all tested E. coli strains: 1 to 2 µM
